Experiments:
[1] = system: colorectal cancer cell line DLD1; test: MTT cytotoxic assay, DLD1 cells; type: cell-based
Protocol: (§1) The cytotoxic effects of terpinen-4-ol on cells were measured with the 3-[4,5-dimethylthiazol-2-yl]-2,5 diphenyltetrazolium (MTT) assay. Cells were seeded in 96-well plates (1×10^4 cells/well) in complete medium. After 12-16 hours of growth, different concentrations of each of the described agents were added to the cells in triplicates. 72 h later, the medium was replaced with fresh medium (100 μl per well) containing 1 mg/ml MTT and the cell were further incubated for 2 to 4 h. MTT-formazan crystals were dissolved by the addition of 100 μl extraction buffer. Absorbance at 570 nm and reference wavelength of 690 nm were recorded on an automated microplate reader. The relative number of viable cells compared to control cell line grown under the same condition, but without the added examined agent was determined.

[2] = system: pancreatic cancer cell line PANC-1; test: MTT cytotoxic assay, PANC-1 cells; type: cell-based, Human
Protocol: as §1

[3] = system: murine AE17 mesothelioma tumor cell line; conditions: Greay S J et al., 2010; cited from earlier work
human M14 melanoma cells = conditions: Calcabrini A et al., 2004; cited from earlier work
[4] = system: DLD-1 colorectal cancer cell line xenograft; test: Xenograft model of nude mice bearing DLD-1 colorectal cancer cell line; type: in vivo, athymic nude mice
Protocol: Male athymic nude mice, 6-8 weeks old, (Harlan Laboratories) were housed in sterile cages and handled with aseptic precautions. The mice were fed ad libitum. The therapeutic anti-cancer activity of terpinen-4-ol alone or in combination with additional anti-cancer agents was examined as follows: exponentially growing DLD1 cancer cells were harvested and resuspended at a final concentration of 5×10^6 cells per 0.2 ml PBS per injection. The cells were injected subcutaneously at two sites on the backs of the mice. When tumors were palpable, mice were randomly divided into the treatment groups as described hereinbelow.
At the 9th day after cell injection mice were randomly divided into treatment and control groups and the treatment was started by intra-tumor injection. The control group (5 mice) received 50 μl of a PBS solution with 1% DMSO; the treatment group (5 mice) received 50 μl of PBS solution with 1% DMSO containing 0.1% (v/v) terpinen-4-ol (1A).
Mice were treated every second day. The mice were weighed and tumor volume was measured every three days (with a caliper) starting from the onset of treatment with terpinen-4-ol/control. Tumor volume was calculated as 4/3π·a·b^2. At the end of the experiment, the mice were sacrificed by cervical dislocation after anesthesia and the tumors were excised and measured for volume and weight. Half of each tumor was preserved in −80° C. and the other half was preserved in 4% formaldehyde.
At the 11th day after cell implantation, mice were randomly divided into groups and the treatment started. The chemotherapeutic agent (cetuximub, referred to hereinafter by its trade name Erbitox®) was administered via intraperitoneal (i.p) injection 24 hours before administration of terpinen-4-ol. The terpinen-4-ol was administered directly into the tumor (intra-tumor injection).
Mice were treated every second day for 2 weeks. Mice were weighed and tumor volume was measured with a caliper before each additional treatment. Tumor volume was calculated as 4/3π·a·b^2.

[5] = system: drug (adriamicin)-resistant cell line (ADR); conditions: cell line expressing high levels of P-glycoprotein; Calcabrini A et al., 2004; cited from earlier work
[6] = system: colorectal cancer cell line HT29; test: MTT cytotoxic assay, HT29 cells; type: cell-based, Human
Protocol: as §1

cancer cell lines = test: MTT cytotoxic assay, all cancer cell lines examined (general statements); type: cell-based; conditions: terpinen-4-ol at a concentration of 0.01%
Protocol: Human colon adenocarcinoma grade II cells, HT29; Human colon carcinoma cells, HCT116; Human colonic carcinoma cells, COLO 320; Human cell line of metastatic pancreatic adenocarcinoma, COLO 357; Human pancreatic carcinoma epithelial-like cell line, PANC-1; and Human pancreatic carcinoma cells, MIA-PACA were grown in high-glucose Dulbecco's modified Eagle's medium (DMEM) supplemented with 5% heat-inactivated (HI) fetal bovine serum (FBS), 1% Glutamine and streptomycin/penicillin.
(§2) Androgen-independent, highly anaplastic prostate cancer cell line with moderate metastatic potential, DU145; Aggressive androgen-independent anaplastic cell line, CL-1; and the colorectal adenocarcinoma DLD1 cells were grown in RPMI-1640 medium supplemented with 5% HI-FBS.
as §1, with “72 h later, the medium was replaced with fresh medium (100 μl per well) containing 1 mg/ml MTT and the cell were further incubated for 2 to 4 h. MTT-formazan crystals were dissolved by the addition of 100 μl extraction buffer.” left out

[7] = system: prostate cancer cell line DU145; test: MTT cytotoxic assay, DU145 cells; type: cell-based, Human
Protocol: as §2, §1

[8] = system: pancreatic cancer cell line COLO 357; test: MTT cytotoxic assay, COLO 357 cells; type: cell-based, Human
Protocol: as §1, with “Human colon adenocarcinoma grade II cells, HT29; Human colon carcinoma cells, HCT116; Human colonic carcinoma cells, COLO 320; Human cell line” for “The cytotoxic effects”, “metastatic pancreatic adenocarcinoma, COLO 357; Human pancreatic carcinoma epithelial-like cell line, PANC-1; and Human pancreatic carcinoma cells, MIA-PACA” for “terpinen-4-ol on cells”, “grown in high-glucose Dulbecco's modified Eagle's medium (DMEM) supplemented” for “measured”, “5% heat-inactivated (HI) fetal bovine serum (FBS), 1% Glutamine and streptomycin/penicillin. […]” for “the 3-[4,5-dimethylthiazol-2-yl]-2,5 diphenyltetrazolium (MTT) assay.”

[9] = system: murine B16 melanoma tumor cell line; conditions: Greay S J et al., 2010; cited from earlier work
[10] = system: prostate cancer cell line CL-1; test: MTT cytotoxic assay, CL-1 cells; type: cell-based
Protocol: as §2, §1

[11] = system: pancreatic cancer cell line MIA-PACA; test: MTT cytotoxic assay, MIA-PACA cells; type: cell-based, Human
Protocol: as §1

CC1=CCC(O)(C(C)C)CC1 (stereo not drawn) [terpinen-4-ol, 4-methyl-1-(1-methylethyl)-3-cyclohexen-1-ol]
concentration dependence of cytotoxic effect ([1]; 0.005%, 0.01%, 0.02% and 0.10% (v/v), FIG. 2A): concentration dependent
dependence of cytotoxic activity on DMSO ([1]; 0.01% DMSO added to medium containing 0.01%, 0.05% or 0.10% terpinen-4-ol, FIG. 1A): does not depend on the presence of DMSO
concentration dependence of cytotoxic effect ([2]; 0.005%, 0.01%, 0.02% and 0.10% (v/v), FIG. 2F): concentration dependent
dependence of cytotoxic activity on DMSO ([2]; 0.01% DMSO added to medium containing 0.01%, 0.05% or 0.10% terpinen-4-ol, FIG. 1C): does not depend on the presence of DMSO
anti-proliferative effect [3]: significant anti-proliferative effects
effect on cell growth (human M14 melanoma cells): impair the growth
volume of the implanted tumor ([4]; Example 5, intra-tumor injection of 50 μl 0.1% terpinen-4-ol (about 1.65 mg/Kg per injection) every second day, vs control, FIG. 5A): significantly reduced
weight of the implanted tumor ([4]; Example 5, intra-tumor injection of 50 μl 0.1% terpinen-4-ol (about 1.65 mg/Kg per injection) every second day, vs control, end of assay, FIG. 5B): significantly reduced
effect on the tumor growth ([4]; Example 6, 0.1% terpinen-4-ol intra-tumor, after two weeks of treatment): only minor effect
reduction of tumor size compared to control ([4]; Example 6, 50 μl 0.1% terpinen-4-ol intra-tumor every second day, after two weeks of treatment, FIG. 6): about 3.7%
effectiveness relative to parental M14 cells [5]: more effective
concentration dependence of cytotoxic effect ([6]; 0.005%, 0.01%, 0.02% and 0.10% (v/v), FIG. 2B): concentration dependent
dependence of cytotoxic activity on DMSO ([6]; 0.01% DMSO added to medium containing 0.01%, 0.05% or 0.10% terpinen-4-ol, FIG. 1B): does not depend on the presence of DMSO
cytotoxic activity in the presence of DMSO compared to without ([6]; 0.01% DMSO, FIG. 1B): lower activity
cytotoxic effectiveness (cancer cell lines): moderately effective
concentration dependence of cytotoxic effect ([7]; 0.005%, 0.01%, 0.02% and 0.10% (v/v), FIG. 2C): concentration dependent
dependence of cytotoxic activity on DMSO ([7]; 0.01% DMSO added to medium containing 0.01%, 0.05% or 0.10% terpinen-4-ol, FIG. 1F): does not depend on the presence of DMSO
concentration dependence of cytotoxic effect ([8]; 0.005%, 0.01%, 0.02% and 0.10% (v/v), FIG. 2G): concentration dependent
dependence of cytotoxic activity on DMSO ([8]; 0.01% DMSO added to medium containing 0.01%, 0.05% or 0.10% terpinen-4-ol, FIG. 1E): does not depend on the presence of DMSO
anti-proliferative effect [9]: significant anti-proliferative effects
concentration dependence of cytotoxic effect ([10]; 0.005%, 0.01%, 0.02% and 0.10% (v/v), FIG. 2D): concentration dependent
dependence of cytotoxic activity on DMSO ([10]; 0.01% DMSO added to medium containing 0.01%, 0.05% or 0.10% terpinen-4-ol, FIG. 1G): does not depend on the presence of DMSO
concentration dependence of cytotoxic effect ([11]; 0.005%, 0.01%, 0.02% and 0.10% (v/v), FIG. 2E): concentration dependent
dependence of cytotoxic activity on DMSO ([11]; 0.01% DMSO added to medium containing 0.01%, 0.05% or 0.10% terpinen-4-ol, FIG. 1D): does not depend on the presence of DMSO
